From ChEMBL document CHEMBL1132364, “Structure-activity relationship of N-(phenylalkyl)cinnamides as novel NR2B subtype-selective NMDA receptor antagonists” (J Med Chem, 1999)

Columns and labels:
[1] = molecular target: Glutamate NMDA receptor; Grin1/Grin2a (Rattus norvegicus, UniProt P35439+Q00959); assay: Antagonistic activity against N-methyl-D-aspartate glutamate receptor 1/2A.; assay type: functional
[2] = molecular target: Glutamate NMDA receptor; Grin1/Grin2b (Rattus norvegicus, UniProt P35439+Q00960); assay: Antagonistic activity against N-methyl-D-aspartate glutamate receptor 1/2B.; assay type: functional
Chain of Glutamate NMDA receptor; Grin1/Grin2b (Q00960 whole entry, other chains not shown): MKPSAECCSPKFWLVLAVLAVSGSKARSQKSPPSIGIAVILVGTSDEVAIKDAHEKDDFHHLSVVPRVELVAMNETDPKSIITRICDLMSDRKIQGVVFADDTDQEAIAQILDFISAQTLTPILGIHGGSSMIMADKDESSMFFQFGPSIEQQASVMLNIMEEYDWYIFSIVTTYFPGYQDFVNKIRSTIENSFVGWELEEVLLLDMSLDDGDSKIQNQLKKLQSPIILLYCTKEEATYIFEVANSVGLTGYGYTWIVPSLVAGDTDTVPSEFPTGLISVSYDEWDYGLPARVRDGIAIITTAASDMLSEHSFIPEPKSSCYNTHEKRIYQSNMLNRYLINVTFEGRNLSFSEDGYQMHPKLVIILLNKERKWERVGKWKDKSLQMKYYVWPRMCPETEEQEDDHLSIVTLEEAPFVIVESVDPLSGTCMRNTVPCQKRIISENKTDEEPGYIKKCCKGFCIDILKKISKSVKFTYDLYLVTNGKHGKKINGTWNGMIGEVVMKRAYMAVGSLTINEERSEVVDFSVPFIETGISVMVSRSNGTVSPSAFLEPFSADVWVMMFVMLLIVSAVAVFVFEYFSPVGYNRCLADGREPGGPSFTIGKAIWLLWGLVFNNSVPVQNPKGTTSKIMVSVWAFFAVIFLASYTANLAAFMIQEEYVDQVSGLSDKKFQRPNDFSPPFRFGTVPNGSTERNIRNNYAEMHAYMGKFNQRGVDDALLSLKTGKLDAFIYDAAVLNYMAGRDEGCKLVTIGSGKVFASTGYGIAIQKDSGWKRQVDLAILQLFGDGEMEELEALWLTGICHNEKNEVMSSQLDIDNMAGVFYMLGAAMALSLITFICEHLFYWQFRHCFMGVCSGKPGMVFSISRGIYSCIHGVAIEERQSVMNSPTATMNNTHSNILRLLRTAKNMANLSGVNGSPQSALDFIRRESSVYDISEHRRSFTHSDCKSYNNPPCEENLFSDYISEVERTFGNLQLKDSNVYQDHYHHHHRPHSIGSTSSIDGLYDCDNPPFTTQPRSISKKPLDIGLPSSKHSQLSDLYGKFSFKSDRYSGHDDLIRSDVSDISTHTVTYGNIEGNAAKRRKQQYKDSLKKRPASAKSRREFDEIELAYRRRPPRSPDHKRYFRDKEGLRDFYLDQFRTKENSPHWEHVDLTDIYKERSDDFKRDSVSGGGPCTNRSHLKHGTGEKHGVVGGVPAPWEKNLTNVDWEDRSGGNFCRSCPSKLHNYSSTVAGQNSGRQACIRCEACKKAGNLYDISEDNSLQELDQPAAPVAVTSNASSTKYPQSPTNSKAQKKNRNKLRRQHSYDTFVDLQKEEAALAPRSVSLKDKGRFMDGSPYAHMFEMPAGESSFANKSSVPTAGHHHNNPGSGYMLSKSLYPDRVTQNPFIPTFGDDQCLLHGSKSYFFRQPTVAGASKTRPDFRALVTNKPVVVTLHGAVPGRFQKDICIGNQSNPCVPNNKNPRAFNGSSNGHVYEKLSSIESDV

[3] = molecular target: Glutamate NMDA receptor; Grin1/Grin2c (Rattus norvegicus, UniProt P35439+Q00961); assay: Antagonistic activity against N-methyl-D-aspartate glutamate receptor 1/2C.; assay type: functional
Chain of Glutamate NMDA receptor; Grin1/Grin2c (Q00961 whole entry, other chains not shown): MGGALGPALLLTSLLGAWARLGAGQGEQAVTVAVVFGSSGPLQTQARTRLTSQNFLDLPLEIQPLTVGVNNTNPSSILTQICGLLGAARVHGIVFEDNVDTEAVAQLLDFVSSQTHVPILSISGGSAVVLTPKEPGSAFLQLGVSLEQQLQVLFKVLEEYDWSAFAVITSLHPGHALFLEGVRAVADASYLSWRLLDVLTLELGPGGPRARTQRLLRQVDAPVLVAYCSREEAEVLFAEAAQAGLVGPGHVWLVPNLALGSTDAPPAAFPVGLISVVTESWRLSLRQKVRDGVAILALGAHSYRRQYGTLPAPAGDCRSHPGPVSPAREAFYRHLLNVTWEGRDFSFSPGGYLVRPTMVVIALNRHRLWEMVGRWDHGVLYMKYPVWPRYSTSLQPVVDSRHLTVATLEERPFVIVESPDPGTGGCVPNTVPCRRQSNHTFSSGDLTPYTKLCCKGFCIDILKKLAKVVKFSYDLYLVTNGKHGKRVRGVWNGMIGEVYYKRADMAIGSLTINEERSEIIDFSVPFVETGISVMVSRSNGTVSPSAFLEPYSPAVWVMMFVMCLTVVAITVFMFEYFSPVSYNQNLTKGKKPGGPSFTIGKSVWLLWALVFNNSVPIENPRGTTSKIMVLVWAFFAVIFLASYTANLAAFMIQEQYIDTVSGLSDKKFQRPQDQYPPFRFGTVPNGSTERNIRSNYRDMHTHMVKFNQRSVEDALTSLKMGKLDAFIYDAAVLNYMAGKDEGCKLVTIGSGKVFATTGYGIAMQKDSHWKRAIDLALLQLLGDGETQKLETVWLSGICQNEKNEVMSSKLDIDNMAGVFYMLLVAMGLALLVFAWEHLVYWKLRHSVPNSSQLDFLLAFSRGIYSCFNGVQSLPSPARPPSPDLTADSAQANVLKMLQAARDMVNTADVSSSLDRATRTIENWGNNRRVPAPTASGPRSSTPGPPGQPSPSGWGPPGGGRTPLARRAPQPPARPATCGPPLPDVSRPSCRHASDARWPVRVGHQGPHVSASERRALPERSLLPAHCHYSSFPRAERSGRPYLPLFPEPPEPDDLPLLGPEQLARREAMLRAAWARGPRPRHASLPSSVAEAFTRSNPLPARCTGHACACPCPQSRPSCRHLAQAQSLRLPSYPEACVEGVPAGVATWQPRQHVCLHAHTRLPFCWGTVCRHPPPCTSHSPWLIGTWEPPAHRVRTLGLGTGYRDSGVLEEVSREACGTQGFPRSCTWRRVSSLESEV

[4] = molecular target: T1, Alpha-1A adrenergic receptor (Homo sapiens, UniProt P35348); assay: Inhibition of Alpha-1 adrenergic receptor
T1 sequence (P35348 whole entry): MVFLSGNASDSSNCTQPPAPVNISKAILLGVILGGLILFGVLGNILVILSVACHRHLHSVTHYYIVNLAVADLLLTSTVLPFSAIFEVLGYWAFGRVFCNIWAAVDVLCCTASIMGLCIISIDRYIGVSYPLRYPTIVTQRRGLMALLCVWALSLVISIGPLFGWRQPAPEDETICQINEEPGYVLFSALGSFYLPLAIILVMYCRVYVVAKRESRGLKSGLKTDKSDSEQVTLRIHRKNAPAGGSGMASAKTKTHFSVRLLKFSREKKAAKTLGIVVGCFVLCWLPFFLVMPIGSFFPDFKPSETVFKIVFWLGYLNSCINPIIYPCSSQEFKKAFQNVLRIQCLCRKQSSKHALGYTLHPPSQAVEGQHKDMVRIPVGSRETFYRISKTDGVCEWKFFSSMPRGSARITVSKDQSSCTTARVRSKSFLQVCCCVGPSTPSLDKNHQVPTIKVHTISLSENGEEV

[5] = molecular target: Epidermal growth factor receptor (Homo sapiens, UniProt P00533); assay: Inhibition of Epidermal growth factor receptor autophosphorylation

Chain of Glutamate NMDA receptor; Grin1/Grin2a (Q00959 whole entry, other chains not shown): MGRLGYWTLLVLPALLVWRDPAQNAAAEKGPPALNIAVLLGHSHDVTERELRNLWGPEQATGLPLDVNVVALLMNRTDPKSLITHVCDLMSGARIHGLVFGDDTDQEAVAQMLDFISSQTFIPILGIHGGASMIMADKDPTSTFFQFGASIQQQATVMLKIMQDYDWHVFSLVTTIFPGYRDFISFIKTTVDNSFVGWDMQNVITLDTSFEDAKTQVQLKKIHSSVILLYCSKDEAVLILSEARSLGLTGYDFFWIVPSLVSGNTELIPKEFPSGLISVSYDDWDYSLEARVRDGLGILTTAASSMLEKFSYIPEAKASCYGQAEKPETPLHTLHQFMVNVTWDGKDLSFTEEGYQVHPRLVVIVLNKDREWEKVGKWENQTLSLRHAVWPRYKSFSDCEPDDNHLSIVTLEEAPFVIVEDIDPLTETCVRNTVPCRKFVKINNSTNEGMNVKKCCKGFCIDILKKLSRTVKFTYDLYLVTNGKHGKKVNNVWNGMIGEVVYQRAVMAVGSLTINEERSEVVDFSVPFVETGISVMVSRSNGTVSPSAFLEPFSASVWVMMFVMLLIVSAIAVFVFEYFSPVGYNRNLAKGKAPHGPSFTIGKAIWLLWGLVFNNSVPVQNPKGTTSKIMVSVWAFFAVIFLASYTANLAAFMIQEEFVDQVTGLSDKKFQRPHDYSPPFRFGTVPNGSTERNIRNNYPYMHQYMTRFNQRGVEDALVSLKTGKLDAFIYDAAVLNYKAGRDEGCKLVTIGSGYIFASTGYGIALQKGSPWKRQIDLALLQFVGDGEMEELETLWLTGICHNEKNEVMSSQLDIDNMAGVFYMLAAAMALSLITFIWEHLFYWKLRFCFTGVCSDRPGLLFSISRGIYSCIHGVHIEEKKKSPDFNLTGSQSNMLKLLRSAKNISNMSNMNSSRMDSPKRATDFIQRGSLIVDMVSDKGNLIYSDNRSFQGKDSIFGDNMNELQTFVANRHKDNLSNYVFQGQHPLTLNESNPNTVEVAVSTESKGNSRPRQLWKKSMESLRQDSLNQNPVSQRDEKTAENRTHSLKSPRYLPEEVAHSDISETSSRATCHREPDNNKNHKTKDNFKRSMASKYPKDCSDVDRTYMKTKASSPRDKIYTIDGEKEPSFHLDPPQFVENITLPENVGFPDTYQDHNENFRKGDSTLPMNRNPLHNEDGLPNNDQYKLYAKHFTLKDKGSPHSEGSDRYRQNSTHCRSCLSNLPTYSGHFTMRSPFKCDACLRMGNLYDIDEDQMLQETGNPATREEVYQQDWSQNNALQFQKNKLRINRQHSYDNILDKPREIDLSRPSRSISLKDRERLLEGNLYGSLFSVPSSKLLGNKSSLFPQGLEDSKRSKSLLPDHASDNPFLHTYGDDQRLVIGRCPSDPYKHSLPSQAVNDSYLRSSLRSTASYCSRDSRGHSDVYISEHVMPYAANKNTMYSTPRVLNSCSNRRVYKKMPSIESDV

IC50 [1] [µM] | IC50 [2] [µM] | IC50 [3] [µM] | IC50 [4] [µM] | Compound | IC50 [5] [µM]
> 100 | 80 | > 100 |  | N#C/C(=C\c1ccccc1)C(=O)NCCCCc1ccccc1 | 
23 | 1.8 | > 100 |  | O=C(CCCCCc1ccccc1)CCc1ccc(O)cc1 | 
78 | 3.4 | > 100 |  | N#C/C(=C\c1ccc(Cl)cc1)C(=O)NCCc1ccc(O)cc1 | 
> 100 | 46 | > 100 |  | N#C/C(=C\C(=O)NCCc1ccc(O)cc1)c1ccccc1 | 
> 100 | 9 | > 100 |  | N#C/C(=C\C(=O)NCCc1ccc(O)cc1)c1ccc(Cl)cc1 | 
> 100 | 7.4 | > 100 |  | O=C(/C=C/c1ccc(Cl)cc1)NCCc1cccc(O)c1 | 
52 | 0.009 |  |  | C[C@@H](CN1CCC(Cc2ccccc2)CC1)[C@@H](O)c1ccc(O)cc1 | 
> 100 | 0.29 | > 100 |  | N#C/C(=C\c1ccc(O)cc1)C(=O)NCCCCc1ccccc1 | 
19 | 45 | 100 |  | N#C/C(=C\c1ccc(O)c(O)c1)C(=O)NCc1ccccc1 | 
> 100 | 19 | > 100 | > 100 | O=C(/C=C/c1ccc(Cl)cc1Cl)NCCc1ccc(O)cc1 | 
> 100 | 0.56 | > 100 | > 100 | N#C/C(=C\c1ccc(O)c(O)c1)C(=O)NCCCCc1ccccc1 | 
 |  |  | 0.1 | C[C@H]([C@@H](O)c1ccc(O)cc1)N1CCC(Cc2ccccc2)CC1 [(S,R)-IFENPRODIL] | 
> 100 | 24 | > 100 |  | O=C(/C=C/c1ccccc1)NCCCCc1ccccc1 | 
> 100 | 0.33 | > 100 |  | O=C(/C=C/c1ccc(O)cc1)NCCc1ccc(Cl)cc1 | 
> 100 |  | > 100 | > 100 | O=C(/C=C/c1ccc(O)cc1)N1CCC(Cc2ccccc2)CC1 | 
> 100 | 0.077 | > 100 | > 100 | O=C(/C=C/c1ccc(O)cc1)NCCCCc1ccccc1 | 
> 100 | 0.68 | > 100 |  | O=C(/C=C/c1ccccc1)NCCc1ccc(O)cc1 | 
> 100 |  | > 100 |  | C[C@@H]([C@@H](O)c1ccc(O)cc1)N1CCC(O)(c2ccccc2)CC1 [TRAXOPRODIL] | 
> 100 | 0.66 | 60 |  | N#C/C(=C\c1ccc(O)c(O)c1)C(=O)NCCCc1ccccc1 | 
> 100 | > 100 | > 100 |  | O=C(/C=C/c1ccc(Cl)cc1)NCCc1ccccc1 | 
49 | 32 | > 100 |  | CCN(CC)CCOc1ccc(CCNC(=O)/C=C/c2ccc(Cl)cc2)cc1 | 
45 | 52 | > 100 |  | O=C(O)COc1ccc(CCNC(=O)/C=C/c2ccc(Cl)cc2)cc1 | 
> 100 | 8.3 | > 100 |  | O=C(/C=C/c1ccc(Cl)cc1)NCCc1ccccc1O | 
> 100 | 0.17 | > 100 |  | O=C(/C=C/c1ccc(Cl)cc1)NCCc1ccc(O)cc1 | 
> 100 | 90 | > 100 |  | N#C/C(=C\c1ccc(O)c(O)c1)C(=O)Nc1ccccc1 | 
> 100 | 0.125 | > 100 |  | O=C(/C=C/c1ccc(O)cc1)NCCCCc1ccc(Cl)cc1 | 
> 100 | 0.43 | > 100 |  | O=C(CCc1ccc(O)cc1)NCCCCc1ccccc1 | 
> 100 | 1.5 | > 100 |  | O=C(/C=C/c1ccc(O)cc1)NCCc1ccccc1 | 

Compound | IC50 [1] [µM] | IC50 [2] [µM] | IC50 [3] [µM] | IC50 [4] [µM] | IC50 [5] [µM]
O=C(/C=C/c1cc(Cl)ccc1Cl)NCCCCc1ccccc1 | > 100 | > 100 | > 100 |  | 
N#C/C(=C\c1ccc(Cl)cc1)C(=O)NCCCCc1ccccc1 | > 100 | > 100 | > 100 |  | 
O=C(/C=C/c1ccc(O)cc1)NCCc1ccc(O)cc1 [N-P-COUMAROYL TYRAMINE] | > 100 | 21 | > 100 |  | 
O=C(/C=C/c1ccc(Cl)cc1)NCCc1ccc(Cl)cc1 | > 100 | > 100 | > 100 |  | 
N#C/C(=C\c1cccc(O)c1)C(=O)NCCCCc1ccccc1 | > 100 | > 100 | > 100 |  | 
N#C/C(=C\c1ccc(O)c(O)c1)C(=O)NCCc1ccccc1 | > 100 | 1.7 | > 100 |  | < 0.625
N#C/C(=C\c1ccc(F)cc1)C(=O)NCCCCc1ccccc1 | > 100 | > 100 | > 100 |  | 
